In ChEMBL document CHEMBL1201862, “PubChem BioAssay data set” (2004):
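Step 1: Grow cells in 96-well plates. Step 2: Expose to compound for 48 hours at 5 concentrations. Step 3: Interpolate endpoints linearly; if unreached, use highest concentration. The concentration for 50% growth inhibition is given as GI50.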 Activity calls are given as the source filed them. Rule as the data show it: active = GI50 up to about 1.1 µM and inactive = higher.

How the values were obtained:
Assay in all cases: NCI-60 cell line screen, 48 h
OVCAR-8 = test system: OVCAR-8
EKVX = test system: EKVX
SF-268 = test system: SF-268
SK-OV-3 = test system: SK-OV-3
DU-145 = test system: DU-145
MDA-MB-435 = test system: MDA-MB-435
HOP-92 = test system: HOP-92
NCI/ADR-RES = test system: NCI/ADR-RES
NCI-H460 = test system: NCI-H460
Hs-578T = test system: Hs-578T
Malme-3M = test system: Malme-3M
MOLT-4 = test system: MOLT-4
SR = test system: SR
K562 = test system: K562
786-0 = test system: 786-0
SNB-75 = test system: SNB-75
ACHN = test system: ACHN
OVCAR-5 = test system: OVCAR-5
UACC-62 = test system: UACC-62
UACC-257 = test system: UACC-257
HCT-116 = test system: HCT-116
SN12C = test system: SN12C
LOX IMVI = test system: LOX IMVI
HOP-62 = test system: HOP-62
U-251 = test system: U-251
MCF7 = test system: MCF7
BT-549 = test system: BT-549
SK-MEL-5 = test system: SK-MEL-5
SW-620 = test system: SW-620
SK-MEL-28 = test system: SK-MEL-28
HCC 2998 = test system: HCC 2998
OVCAR-4 = test system: OVCAR-4
A549 = test system: A549
COLO 205 = test system: COLO 205
M14 = test system: M14
RXF 393 = test system: RXF 393
NCI-H23 = test system: NCI-H23
IGROV-1 = test system: IGROV-1
HCT-15 = test system: HCT-15
CCRF-CEM = test system: CCRF-CEM
CAKI-1 = test system: CAKI-1
UO-31 = test system: UO-31
HT-29 = test system: HT-29
HL-60 = test system: HL-60
MDA-MB-231 = test system: MDA-MB-231
SNB-19 = test system: SNB-19
SK-MEL-2 = test system: SK-MEL-2
RPMI-8226 = test system: RPMI-8226
SF-539 = test system: SF-539
PC-3 = test system: PC-3
MDA-N = test system: MDA-N
TK-10 = test system: TK-10
SF-295 = test system: SF-295
NCI-H522 = test system: NCI-H522
KM12 = test system: KM12
NCI-H226 = test system: NCI-H226
T47D = test system: T47D
OVCAR-3 = test system: OVCAR-3
A498 = test system: A498

Measured: GI50

Cc1ccccc1N/C(N)=N/C#N
inactive: OVCAR-8 > 100 µM | EKVX > 100 µM | SF-268 > 100 µM | SK-OV-3 > 100 µM | DU-145 > 100 µM | MDA-MB-435 > 100 µM | HOP-92 97.7 µM | NCI/ADR-RES > 100 µM | NCI-H460 > 100 µM | Hs-578T > 100 µM | Malme-3M > 100 µM | MOLT-4 > 100 µM | SR > 100 µM | K562 > 100 µM | 786-0 > 100 µM | SNB-75 > 100 µM | ACHN > 100 µM | OVCAR-5 > 100 µM | UACC-62 > 100 µM | UACC-257 > 100 µM | HCT-116 > 100 µM | SN12C > 100 µM | LOX IMVI > 100 µM | HOP-62 > 100 µM | U-251 > 100 µM | MCF7 > 100 µM | BT-549 > 100 µM | SK-MEL-5 > 100 µM | SW-620 > 100 µM | SK-MEL-28 > 100 µM | HCC 2998 > 100 µM | OVCAR-4 > 100 µM | A549 > 100 µM | COLO 205 > 100 µM | M14 > 100 µM | RXF 393 > 100 µM | NCI-H23 > 100 µM | IGROV-1 > 100 µM | CCRF-CEM > 100 µM | CAKI-1 > 100 µM | UO-31 > 100 µM | HT-29 > 100 µM | HL-60 > 100 µM | MDA-MB-231 > 100 µM | SNB-19 > 100 µM | SK-MEL-2 > 100 µM | RPMI-8226 > 100 µM | SF-539 > 100 µM | PC-3 > 100 µM | MDA-N > 100 µM | TK-10 > 100 µM
> 100 µM: HCT-15

O=c1c2cc(I)ccc2nc(-c2cccs2)n1-c1ccc(O)cc1
12.4 µM: HCT-15
inactive: OVCAR-8 15.5 µM | EKVX 14.4 µM | SF-268 14.1 µM | DU-145 6.78 µM | MDA-MB-435 12 µM | SF-295 12.6 µM | HOP-92 10.1 µM | NCI/ADR-RES 17.8 µM | NCI-H522 13.1 µM | NCI-H460 14.9 µM | KM12 11.2 µM | Malme-3M 5.4 µM | MOLT-4 6.04 µM | SR 17.4 µM | K562 24.2 µM | 786-0 16.3 µM | ACHN 8.2 µM | OVCAR-5 15.5 µM | UACC-62 13.1 µM | HCT-116 14.3 µM | SN12C 15.5 µM | LOX IMVI 11.6 µM | HOP-62 17.5 µM | U-251 17.9 µM | MCF7 11.5 µM | BT-549 14.5 µM | SK-MEL-5 11.6 µM | SW-620 22.2 µM | SK-MEL-28 16 µM | HCC 2998 16.1 µM | OVCAR-4 12.6 µM | A549 10.2 µM | COLO 205 17.2 µM | M14 15.8 µM | RXF 393 14.8 µM | NCI-H23 16.7 µM | IGROV-1 13.5 µM | NCI-H226 14.4 µM | T47D 1.56 µM | OVCAR-3 9.51 µM | CAKI-1 17.1 µM | UO-31 10.4 µM | HT-29 13 µM | HL-60 7.82 µM | SNB-19 16.6 µM | SK-MEL-2 15.6 µM | RPMI-8226 3.37 µM | PC-3 10.6 µM | MDA-N 14.6 µM | TK-10 10.7 µM
active: UACC-257 < 0.01 µM | SF-539 < 0.01 µM

Brc1ccc2c(c1)-c1nc3c(cc1CC2)CCc1ccc(Br)cc1-3
active: RPMI-8226 0.637 µM
> 100 µM: HCT-15
inactive: OVCAR-8 > 100 µM | EKVX > 100 µM | SF-268 > 100 µM | SK-OV-3 > 100 µM | MDA-MB-435 > 100 µM | A498 > 100 µM | SF-295 > 100 µM | HOP-92 > 100 µM | NCI/ADR-RES > 100 µM | NCI-H522 > 100 µM | NCI-H460 > 100 µM | KM12 > 100 µM | Malme-3M > 100 µM | MOLT-4 42.4 µM | K562 22.6 µM | 786-0 > 100 µM | SNB-75 > 100 µM | ACHN > 100 µM | OVCAR-5 > 100 µM | UACC-257 > 100 µM | HCT-116 > 100 µM | SN12C > 100 µM | LOX IMVI > 100 µM | HOP-62 > 100 µM | U-251 > 100 µM | MCF7 > 100 µM | BT-549 > 100 µM | SK-MEL-5 > 100 µM | SW-620 > 100 µM | SK-MEL-28 > 100 µM | HCC 2998 > 100 µM | OVCAR-4 > 100 µM | A549 > 100 µM | COLO 205 > 100 µM | M14 > 100 µM | RXF 393 > 100 µM | NCI-H23 > 100 µM | IGROV-1 > 100 µM | NCI-H226 > 100 µM | T47D > 100 µM | OVCAR-3 > 100 µM | CCRF-CEM > 100 µM | CAKI-1 > 100 µM | UO-31 > 100 µM | MDA-MB-231 > 100 µM | SNB-19 > 100 µM | SK-MEL-2 > 100 µM | PC-3 > 100 µM | MDA-N > 100 µM | TK-10 > 100 µM
